Data published in paper PMC12668310, “High‐Throughput Synthesis and Screening of a Cyanimide Library Identifies Selective Inhibitors of ISG15‐Specific Protease mUSP18” (Angewandte Chemie (International Ed. in English), 2025).
Several values for one entry are separate records, joined by “and”; a condition that tells them apart may be missing. Equal values may be shown once. Read-outs that look alike come from different tables or passages of the source.

Tests used:
mUSP18 [1] = target: T1, mUSP18 (Mus musculus, UniProt Q9WTV6); test: High-throughput screening, ISG15ct-RhoMP, single dose 1.25 µM; format: biochemical, murine; conditions: mUSP18 %inhibition
T1 construct: (46-368); His-tag (N); made in house
T1 sequence (Q9WTV6 46-368): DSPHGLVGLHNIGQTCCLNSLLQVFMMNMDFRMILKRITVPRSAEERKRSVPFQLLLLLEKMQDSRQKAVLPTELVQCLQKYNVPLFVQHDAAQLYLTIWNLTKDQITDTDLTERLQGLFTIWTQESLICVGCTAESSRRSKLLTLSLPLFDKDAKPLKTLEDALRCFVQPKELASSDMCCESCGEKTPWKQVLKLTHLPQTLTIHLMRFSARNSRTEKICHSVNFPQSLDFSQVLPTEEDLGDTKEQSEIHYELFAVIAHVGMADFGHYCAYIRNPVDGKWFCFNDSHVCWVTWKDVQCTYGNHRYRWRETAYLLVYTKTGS

UCHL3 = target: T2, UCHL3 (Homo sapiens, UniProt P15374); test: IC50 determination, fluorogenic Ub-Rho-morpholine activity assay; format: biochemical; conditions: after 30 min incubation; purified compound
T2 construct: (1-230); made in house
T2 sequence (P15374 1-230): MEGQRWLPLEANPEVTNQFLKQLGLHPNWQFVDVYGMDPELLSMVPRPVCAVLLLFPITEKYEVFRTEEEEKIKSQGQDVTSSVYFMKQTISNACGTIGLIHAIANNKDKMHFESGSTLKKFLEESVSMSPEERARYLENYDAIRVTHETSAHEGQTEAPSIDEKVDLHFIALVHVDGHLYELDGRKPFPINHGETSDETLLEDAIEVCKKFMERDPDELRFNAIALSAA

USP32 = target: T3, USP32 (Homo sapiens, UniProt Q8NFA0); test: as above; format: biochemical; conditions: after 30 min incubation; purified compound
T3 construct: (1-1604); His-tag (N); made in house

UCHL1 = target: T4, UCHL1 (Homo sapiens, UniProt P09936); test: as above; format: biochemical; conditions: ratio of IC50 values
T4 construct: (1-223); made in house
T4 sequence (P09936 1-223): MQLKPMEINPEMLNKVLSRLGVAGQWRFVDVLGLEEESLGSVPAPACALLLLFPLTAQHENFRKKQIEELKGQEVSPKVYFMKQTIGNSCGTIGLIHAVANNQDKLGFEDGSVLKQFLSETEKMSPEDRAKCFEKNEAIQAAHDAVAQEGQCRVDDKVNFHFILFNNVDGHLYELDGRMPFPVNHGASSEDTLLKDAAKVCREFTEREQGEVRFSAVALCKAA

mUSP18 [2] = target: T1, mUSP18; test: IC50 determination, fluorogenic ISG15CT-Rho-morpholine activity assay; format: biochemical, murine; conditions: after 30 min incubation; purified compound; ISG15CT-Rho-morpholine substrate
[3] = carboxylic acid (CA) building block alone, read-out: %inh CA only
[4] = carboxylic acid (CA) with coupling reagents DIC/HOBT, read-out: %inh CA + DIC/HOBT

T3 sequence (Q8NFA0 whole entry): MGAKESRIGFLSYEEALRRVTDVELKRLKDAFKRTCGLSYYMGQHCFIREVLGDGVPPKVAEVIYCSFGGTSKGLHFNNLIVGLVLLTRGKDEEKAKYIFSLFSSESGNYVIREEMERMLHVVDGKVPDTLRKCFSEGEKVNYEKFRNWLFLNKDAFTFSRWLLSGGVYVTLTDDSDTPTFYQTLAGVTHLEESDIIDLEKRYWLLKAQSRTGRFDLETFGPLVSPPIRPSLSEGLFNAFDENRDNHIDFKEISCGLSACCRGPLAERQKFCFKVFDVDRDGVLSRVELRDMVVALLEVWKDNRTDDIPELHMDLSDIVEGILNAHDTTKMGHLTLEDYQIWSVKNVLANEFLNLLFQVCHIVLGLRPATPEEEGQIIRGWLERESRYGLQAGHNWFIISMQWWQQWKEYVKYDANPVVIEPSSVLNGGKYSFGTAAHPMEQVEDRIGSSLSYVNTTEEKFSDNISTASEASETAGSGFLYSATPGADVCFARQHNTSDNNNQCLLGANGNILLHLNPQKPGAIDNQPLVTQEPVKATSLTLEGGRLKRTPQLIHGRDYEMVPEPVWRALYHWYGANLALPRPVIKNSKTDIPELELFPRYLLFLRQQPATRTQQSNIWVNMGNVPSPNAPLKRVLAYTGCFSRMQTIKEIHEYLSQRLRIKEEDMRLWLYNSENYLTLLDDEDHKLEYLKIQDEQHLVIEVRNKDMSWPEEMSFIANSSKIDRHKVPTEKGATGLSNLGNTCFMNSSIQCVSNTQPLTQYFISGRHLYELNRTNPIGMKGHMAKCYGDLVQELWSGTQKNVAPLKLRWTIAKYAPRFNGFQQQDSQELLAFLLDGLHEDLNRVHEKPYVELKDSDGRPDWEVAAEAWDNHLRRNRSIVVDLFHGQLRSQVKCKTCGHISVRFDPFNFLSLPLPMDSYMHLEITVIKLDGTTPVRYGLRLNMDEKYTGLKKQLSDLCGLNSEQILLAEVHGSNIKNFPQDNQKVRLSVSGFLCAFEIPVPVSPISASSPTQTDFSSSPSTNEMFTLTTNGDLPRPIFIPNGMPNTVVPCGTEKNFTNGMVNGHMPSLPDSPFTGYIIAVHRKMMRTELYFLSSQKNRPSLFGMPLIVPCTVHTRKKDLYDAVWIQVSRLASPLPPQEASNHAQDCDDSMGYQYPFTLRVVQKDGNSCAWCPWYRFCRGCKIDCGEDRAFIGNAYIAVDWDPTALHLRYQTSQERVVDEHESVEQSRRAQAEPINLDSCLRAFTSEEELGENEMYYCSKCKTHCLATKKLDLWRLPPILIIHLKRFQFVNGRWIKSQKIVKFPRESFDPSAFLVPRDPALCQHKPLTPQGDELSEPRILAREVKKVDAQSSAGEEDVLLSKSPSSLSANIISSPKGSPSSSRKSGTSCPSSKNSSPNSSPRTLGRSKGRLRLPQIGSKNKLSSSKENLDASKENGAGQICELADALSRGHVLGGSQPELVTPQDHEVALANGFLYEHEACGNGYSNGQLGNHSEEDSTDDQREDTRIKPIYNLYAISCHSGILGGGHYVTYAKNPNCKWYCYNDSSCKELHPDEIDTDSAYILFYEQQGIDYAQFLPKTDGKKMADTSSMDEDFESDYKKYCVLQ

Compound	inhibition at 1.25 µM (mUSP18 [1]; [3])	inhibition at 1.25 µM (mUSP18 [1]; [4])	other results
Cc1onc(C(=O)O)c1CN1CCN(C)CC1 [CA413]	-6.3%	-3.44%	–
O=C(O)c1cccn1Cc1ccccn1 [CA414]	-4.22%	-9%	–
O=C(O)CCn1nc(C(F)(F)F)cc1C1CC1 [CA415]	-5.69%	-4.3%	–
Cc1csc(-c2cccc(C(=O)O)c2)n1 [CA416]	-3.85%	-4.32%	–
O=C(O)c1cc(COc2ccc(F)cc2F)on1 [CA417]	-8.45%	-7.97%	–
CC(=O)N1CCN(S(=O)(=O)c2cccc(C(=O)O)c2)CC1 [CA418]	-5%	-2.55%	–
Cn1cc(-c2cc(C(=O)O)n[nH]2)cn1 [CA419]	-7.23%	-1.62%	–
Cc1cc(C)n(-c2ccc(Cl)c(C(=O)O)n2)n1 [CA420]	-5.16%	-0.88%	–
O=C(O)Cc1csc(NS(=O)(=O)c2ccccc2)n1 [CA421]	-4.79%	-0.58%	–
O=C(O)c1cccc(S(=O)(=O)N2CCOCC2)c1 [CA422]	-10.9%	-0.86%	–
O=C(O)Cc1coc(-c2cccs2)n1 [CA423]	8.99%	-4.85%	–
COc1ccc(S(=O)(=O)N(CCC(=O)O)Cc2ccccc2)cc1 [CA424]	3.84%	-12.6%	–
Cc1oc(-c2ccsc2)nc1CC(=O)O [CA425]	2.13%	-7.19%	–
Cc1ccc(C=CS(=O)(=O)N2CCC(C(=O)O)CC2)cc1 [CA426]	-0.61%	-6.87%	–
O=C(O)c1cccnc1Oc1ccc(Cl)cc1Cl [CA427]	-5.52%	-6.68%	–
O=C(O)Cc1csc(-c2ccccc2)n1 [CA428]	-0.27%	-5.62%	–
Cc1ccccc1-n1cc(C(=O)O)cn1 [CA429]	-5.24%	4.15%	–
O=C(O)c1cccnc1-n1cccn1 [CA430]	-3.79%	17%	–
CCn1nc(C(C)C)cc1C(=O)N1CCCCC1C(=O)O (stereo not drawn) [CA431]	-2.4%	-10.1%	–
Cn1nc(C2CCC2)cc1C(=O)O [CA432]	-1.28%	-6.37%	–

Compound	inhibition at 1.25 µM (mUSP18 [1]; [3])	inhibition at 1.25 µM (mUSP18 [1]; [4])	other results
O=C(O)c1cccc(Oc2nccs2)c1 [CA433]	-0.99%	-7.69%	–
CNS(=O)(=O)c1ccc(-c2ccccc2OC(F)(F)F)c(C(=O)O)c1 [CA434]	-0.67%	-3.53%	–
O=C(O)Cc1ccc(OCc2ccccn2)cc1 [CA435]	-5.3%	-2.79%	–
O=C(O)c1cc(S(=O)(=O)Nc2cccc(F)c2)ccc1F [CA436]	-3.43%	-0.67%	–
O=C(O)c1ncn(-c2ccccc2)n1 [CA437]	-3.12%	0.58%	–
O=C(O)C1CCCN(c2ccc(Cl)nn2)C1 (stereo not drawn) [CA438]	-7.25%	-2.38%	–
O=C(O)c1cn[nH]c1C1CC1 [CA439]	-3.97%	20.1%	–
O=C(O)C1CCCN(c2ncccc2C(F)(F)F)C1 (stereo not drawn) [CA440]	-5.84%	-2.29%	–
O=C(O)c1nn(-c2ccccc2)c(=O)[nH]c1=O [CA441]	-3.61%	-0.87%	–
Cn1cc(-c2nc(C(=O)O)cs2)cn1 [CA442]	-4.05%	-2.36%	–
O=C(O)c1ncsc1Cc1ccccc1 [CA443]	7.6%	12%	–
O=C(O)C1CCN(C(=O)N2CCOCC2)CC1 [CA444]	-6.76%	-0.57%	–
Cc1n[nH]c(C)c1Cc1ccc(C(=O)O)o1 [CA445]	-7.28%	2.15%	–
CC1=NN(c2cccc(Br)c2)C(=O)C1CC(=O)O (stereo not drawn) [CA446]	-10.1%	26.8%	–
CCn1ccc(-c2cc(C(=O)O)no2)n1 [CA447]	9.91%	-2.33%	–
O=C(O)c1ccc(Cn2ccccc2=O)o1 [CA448]	5.37%	-5.91%	–
CC(C)n1nccc1[1C@@H]1OCC[1C@H]1C(=O)O [CA449]	2.37%	-9.4%	–
O=C(O)c1cnc(-c2cccnc2)s1 [CA450]	0.56%	-9.05%	–
O=C(O)c1ccc(=O)n(C2CC2)c1 [CA451]	-1.56%	-6.2%	–
O=C(O)C1CC(=O)N(OCc2ccccc2)C1 (stereo not drawn) [CA452]	-2.07%	-8.76%	–

Compound	inhibition at 1.25 µM (mUSP18 [1]; [3])	inhibition at 1.25 µM (mUSP18 [1]; [4])	other results
O=C(O)CC1CCN(c2ccc(Cl)nn2)CC1 [CA453]	-0.89%	-4.65%	–
O=C(O)c1cnn(CC2CCC2)c1 [CA454]	-1.23%	-8.94%	–
O=C(O)Cc1csc(C2CC2)n1 [CA455]	0.84%	-7.57%	–
O=C(O)c1cc(C2CCC2)on1 [CA456]	1.15%	-2.8%	–
O=C(O)C(c1ccccc1)n1cccc1 (stereo not drawn) [CA457]	0.68%	-4.48%	–
O=C(O)c1nc(N2CCOCC2)ncc1Cl [CA458]	2.77%	-1.69%	–
O=C(O)C1CCCCN1S(=O)(=O)c1ccc(Br)s1 (stereo not drawn) [CA459]	-0.93%	-2.17%	–
CC(C)c1cc(C(=O)O)n(-c2ccccc2)n1 [CA460]	-1.54%	-0.28%	–
O=C(O)c1ccc(-c2ncon2)cc1 [CA461]	-2.23%	-2.33%	–
O=C(O)C(CCc1ccccc1)c1ccccc1 (stereo not drawn) [CA462]	-0.33%	-1.15%	–
O=C(O)c1cccc(-c2ncon2)c1 [CA463]	-1.44%	-3.17%	–
COC1CC(C(=O)O)N(C(=O)OCc2ccccc2)C1 (stereo not drawn) [CA464]	-0.15%	-1.5%	–
Cc1cccc(COc2cccc(C(=O)O)c2)c1 [CA465]	2.43%	2.72%	–
Cn1cc(-c2cc(C(=O)O)no2)cn1 [CA466]	-0.57%	-1.79%	–
O=C(O)Cc1ccc(NS(=O)(=O)c2cccc(C(F)(F)F)c2)cc1 [CA467]	-0.52%	2.94%	–
CC1CCCCN1S(=O)(=O)c1ccccc1C(=O)O (stereo not drawn) [CA468]	-4.17%	7%	–
O=C(O)c1ccc(S(=O)(=O)N2CCCCCC2)cc1 [CA469]	-5.44%	4.89%	–
N#CN1CC[C@H](C(=O)Nc2ncc(N3CCOCC3)s2)C1 [Compound 5]	–	–	IC50 (UCHL3): > 200 µM; IC50 (USP32): 242 µM; less potency toward USP18 and USP30 compared with UCHL1 (UCHL1): 20–40 fold; IC50 (mUSP18 [2]): 5.1 µM
CCN1C(=O)C=CC1=O [NEM]	–	–	%inh CA only (mUSP18 [1]; carboxylic acid (CA) building block alone): 100.10% and 99.62%; %inh CA + DIC/HOBT (mUSP18 [1]; carboxylic acid (CA) with coupling reagents DIC/HOBT): 99.98% and 100.30%
